In patent publication US10111847B2, “Compounds and methods for modulating vascular injury” (The Regents of the University of California, priority 2012, dated 2018):

Key:
IKKα/β subunit = assay: TNFα induced phosphorylation of IKKα/β in sv-ECs, western blot; assay type: cell-based, human; conditions: 100 nm, 30 min; TNFα 1 ng/ml 15 min
Procedure: Mar-1. VSMCs and ECs were lysed in buffer (20 mM Tris-Hcl, 137 mM NaCl, 10% Glycerol, 1% NP-40) with protease and phosphatase inhibitors (Halt inhibitor capsules, Pierce, Inc) by sonication on ice. The lysates were instantly snap frozen in liquid nitrogen and thawed back later for western blotting. After centrifugation (15,000 g for 20 minutes), the whole cell extract (supernatant) was collected and was heated at 100° C. in Laemlli buffer for 6 minutes. Lysates were run on Mini-Protean TGX gels
(Biorad) and transferred on PVDF membranes which were probed with appropriate primary and secondary antibodies and visualized for quantitation using q-dot nanocrystals (Life Technologies, Inc).
Cells were pretreated with 100 nm of 7S/7R-Maresin-1 for 30 min, followed by TNFα (10 ng/ml for VSMC and 1 ng/ml for EC) for 15 min. Whole cell lysates were collected and probed for pan and phospho IKK (Cell Signaling Inc.).
FIG. 18. IKK-phospho and total IKK western blotting image is representative of three independent experiments. Bar graph represents net quantitative densitometry analysis. N=3. P≤0.05, One-way ANOVA with Dunnett's post hoc test. *: P≤0.05 compared to control, unpaired t-test. †: P≤0.05 compared to TNFα, unpaired t-test. Error bars: SEM.

TNF-α-stimulated EC = assay: U937 monocyte adhesion to TNF-α-stimulated EC (Maresin-1); assay type: cell-based, human; conditions: 1-100 nM, 30 min pretreatment; TNFα 1 ng/ml 4 hr
Procedure: (§1) MaR-1. VSMCs and ECs were seeded on a 96 well plate (20000 cells/well for VSMCs and 50000 cells/well for ECs) and after 2 days, were treated with Maresin-1 (1-100 nM) for 30 min followed by TNF-α for 4 hr and then calcein AM-labeled U937 cells were added on top of the VSMCs. After 15-minute incubation at 37 C, unbound cells were washed off with cold PBS. Fluorescence measurements (ex 494 nm, em 517 nm) of bound monocytes were taken with a plate reader. For capturing images, the assay was performed in 8-well chamber slides (Nunc Labtek) and images were taken after cold PBS wash (three times) following U937 incubation.
(§2) FIGS. 15A-15D. Representative images of Calcein-AM labeled U937 monocytes adhered to human sv-VSMCs pretreated with vehicle (A, B) or 7S-Maresin-1 (C) or 7S-Maresin-1 and pertussis toxin (D) for 30 min, followed by TNFα at 10 ng/ml for 4 hr (B, C, D). (E) Quantitative analysis of U937 adhesion assay in human sv-VSMCs and (F) human sv-ECs (1 ng/ml TNFα used for EC cells). […] Bar graph represents net quantitative densitometry analysis. […] Expression of MCP-1 was measured by qRT-PCR, and normalized to unstimulated cells (n=3, results are mean±SEM, P<0.05 for Mar-1 (10 and 100 nM) vs TNF alone, unpaired t-test).

TNF-α-stimulated VSMC = assay: U937 monocyte adhesion to TNF-α-stimulated VSMC (Maresin-1); assay type: cell-based, human; conditions: 1-100 nM, 30 min pretreatment; TNFα 10 ng/ml 4 hr
Procedure: as §1, §2

carotid artery = assay: Mouse carotid artery ligation model, neointima formation; assay type: in vivo, FVB Mice; conditions: intraperitoneal 100 ng/dose on days 0, 1, 3, 5 and 7; sacrificed at 14 days
Procedure: To examine the potential therapeutic effects of systemic administration of pro-resolving mediators in acute vascular injury, a standardized mouse model of carotid ligation was employed. FVB Mice (N=23) were treated with intraperitoneal administration of RvD2 (100 ng/dose), 7R Mar-1 (100 ng/dose) or vehicle on days 0 (4 hrs prior to carotid injury), 1, 3, 5 and 7. Total dose received was 500 ng/mouse. Unilateral carotid ligation was performed as a standardized model of vascular injury, induced by low shear. Animals were then sacrificed at 14 days and perfusion-fixed vessels explanted for analysis. Following elastin staining, neointima (NI) and medial (M) compartments were measured by a blinded observer, and ratios (area and average wall thickness) calculated. Analysis was performed at mid CCA level (2.5 mm from ligature).
FIG. 22. (A)-(C), depict a cross-section of a carotid artery at mid CCA level (2.5 mm from ligature) from carotid ligation mouse model administered vehicle (A), RvD2 (B), or 7R-Mar-1 (C). (D)-(E) depict NUM ratio of the cross-section of the carotid artery at mid CCA level from carotid ligation mouse model administered vehicle, RvD2, or 7R-Mar-1. […]

Compound | TNFα induced phosphorylation of IKKα/β subunit in human sv-ECs (IKKα/β subunit) | monocyte adhesion (U937) to TNF-α-stimulated EC (TNF-α-stimulated EC) | monocyte adhesion (U937) to TNF-α-stimulated VSMC (TNF-α-stimulated VSMC) | neointima formation following carotid artery ligation (carotid artery)
CC/C=C\C/C=C\C[C@H](O)\C=C/C=C/C=C/[C@@H](O)C/C=C\CCC(=O)O [7S-Maresin-1, 7S,14R-dihydroxydocosa-4Z,8E,10Z,12Z,16Z,19Z-hexaenoic acid] | Reduce | dose-dependent inhibition | dose-dependent inhibition | –
CC/C=C\C[C@H](O)[C@H](O)/C=C/C=C/C=C\C=C\[C@@H](O)C/C=C\CCC(=O)O [RvD2, resolvin D2] | – | – | – | Reduces
